Experimental data from PubChem BioAssay AID248 (DTP/NCI, 2004).
Toxic doses and inconclusive results are not listed. Rule as the data show it: active = T/C of 150% or more; inactive = T/C below 125%. Peptide text beside a SMILES is read from it. * marks the point of attachment. Cbz = O=C(OCc1ccccc1)*

Test system: L1210 leukemia ip in BDF1 mice, survival T/C
Experiment: NCI In Vivo Anticancer Drug Screen. Data for tumor model L1210 Leukemia (intraperitoneal) in B6D2F1 (BDF1) mice
Conditions: endpoint: mean survival time, higher = longer survival
Outline: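 Antitumor effect is assessed in tumor-bearing animals. Survival in the compound arm is compared with a vehicle-dosed control arm and expressed as their quotient.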

[1] = dose: 100.0 mg/kg/injection, schedule: Q01DX009 (ip), vehicle: Klucel (hydroxypropylcellulose) (HPC)
[2] = dose: 200.0 mg/kg/injection, schedule: Q01DX009 (ip), vehicle: Klucel (hydroxypropylcellulose) (HPC)
[3] = dose: 400.0 mg/kg/injection, schedule: Q01DX009 (ip), vehicle: Klucel (hydroxypropylcellulose) (HPC)
[4] = dose: 100.0 mg/kg/injection, schedule: Q01DX001 (ip), vehicle: saline
[5] = dose: 200.0 mg/kg/injection, schedule: Q01DX001 (ip), vehicle: saline
[6] = dose: 100.0 mg/kg/injection, schedule: Q04DX003 (ip), vehicle: saline
[7] = dose: 200.0 mg/kg/injection, schedule: Q04DX003 (ip), vehicle: saline
[8] = dose: 75.0 mg/kg/injection, schedule: Q01DX001 (ip), vehicle: saline
[9] = dose: 150.0 mg/kg/injection, schedule: Q01DX001 (ip), vehicle: saline
[10] = dose: 300.0 mg/kg/injection, schedule: Q01DX001 (ip), vehicle: saline
[11] = dose: 100.0 mg/kg/injection, schedule: Q01DX001 (ip), vehicle: carboxymethylcellulose (CMC)
[12] = dose: 25.0 mg/kg/injection, schedule: Q01DX009 (ip), vehicle: Klucel (hydroxypropylcellulose) (HPC)
[13] = dose: 50.0 mg/kg/injection, schedule: Q01DX009 (ip), vehicle: Klucel (hydroxypropylcellulose) (HPC)
[14] = dose: 100.0 mg/kg/injection, schedule: Q04DX003 (ip), vehicle: saline with Tween-80
[15] = dose: 200.0 mg/kg/injection, schedule: Q04DX003 (ip), vehicle: saline with Tween-80
[16] = dose: 50.0 mg/kg/injection, schedule: Q04DX003 (ip), vehicle: saline
[17] = dose: 12.5 mg/kg/injection, schedule: Q01DX009 (ip), vehicle: saline with Tween-80
[18] = dose: 25.0 mg/kg/injection, schedule: Q01DX009 (ip), vehicle: saline with Tween-80
[19] = dose: 50.0 mg/kg/injection, schedule: Q01DX009 (ip), vehicle: saline with Tween-80
[20] = dose: 100.0 mg/kg/injection, schedule: Q01DX009 (ip), vehicle: saline with Tween-80
[21] = dose: 200.0 mg/kg/injection, schedule: Q01DX009 (ip), vehicle: saline with Tween-80
[22] = dose: 100.0 mg/kg/injection, schedule: Q04DX003 (ip), vehicle: Klucel (hydroxypropylcellulose) (HPC)
[23] = dose: 200.0 mg/kg/injection, schedule: Q04DX003 (ip), vehicle: Klucel (hydroxypropylcellulose) (HPC)
[24] = dose: 400.0 mg/kg/injection, schedule: Q04DX003 (ip), vehicle: Klucel (hydroxypropylcellulose) (HPC)

Measured: T/C

CCN(CC)CCN(CC)C(=O)C1C(c2ccccc2)C1c1ccccc1 (stereo not given)
inactive: dose: 25.0 mg/kg/injection, schedule: Q04DX002 (ip), vehicle: Klucel (hydroxypropylcellulose) (HPC) 102 % of control | dose: 50.0 mg/kg/injection, schedule: Q04DX002 (ip), vehicle: Klucel (hydroxypropylcellulose) (HPC) 102 % of control

CCP(C)(=S)CC
inactive: [1] 101 % of control | [2] 100 % of control | [3] 100 % of control

OC(OC/C(I)=C(/I)COC(O)C(Cl)(Cl)Cl)C(Cl)(Cl)Cl (stereo not given)
inactive: dose: 100.0 mg/kg/injection, schedule: Q01DX009 (ip), vehicle: other 103 % of control | dose: 100.0 mg/kg/injection, schedule: Q04DX003 (ip), vehicle: other 103 % of control | dose: 200.0 mg/kg/injection, schedule: Q01DX009 (ip), vehicle: other 92 % of control | dose: 200.0 mg/kg/injection, schedule: Q04DX003 (ip), vehicle: other 100 % of control | dose: 400.0 mg/kg/injection, schedule: Q04DX003 (ip), vehicle: other 97 % of control

O=C(N/N=C/c1ccc(O)cc1O)c1cccc2ccccc12
inactive: [4] 92 % of control | [5] 100 % of control | dose: 400.0 mg/kg/injection, schedule: Q01DX001 (ip), vehicle: saline 92 % of control

c1ccc(CCN2CCOCC2)nc1
inactive: [6] 109 % of control | [7] 96 % of control

NC(=O)Cc1ccc(C(C2=C(O)c3ccccc3C(=O)C2=O)C2=C(O)c3ccccc3C(=O)C2=O)cc1
inactive: [8] 96 % of control | [9] 101 % of control | [10] 91 % of control

COC(=O)C1(N(C)C)c2ccccc2-c2ccccc21
inactive: [11] 105 % of control

O=C(NNC(=S)Nc1cccc(Cl)c1)c1ccncc1
inactive: [12] 104 % of control | [13] 96 % of control | [1] 96 % of control

Cc1c(C(=O)OCCCl)c(=O)n(-c2ccccc2)n1C
inactive: [4] 98 % of control | [5] 98 % of control

O=C(NCCBr)c1cccc2ccccc12
inactive: [1] 106 % of control | [2] 97 % of control | [3] 95 % of control

Cc1cc2[nH]c(=O)[nH]c2cc1C
inactive: [14] 98 % of control | [15] 88 % of control

COc1ccc(OC)c(NC(=O)Nc2cc(C(F)(F)F)ccc2Cl)c1
inactive: [1] 104 % of control | [3] 91 % of control

COc1cc(C(O)CN)cc(OC)c1OC (stereo not given)
inactive: dose: 25.0 mg/kg/injection, schedule: Q01DX009 (ip), vehicle: saline 100 % of control | dose: 25.0 mg/kg/injection, schedule: Q04DX003 (ip), vehicle: saline 88 % of control | dose: 50.0 mg/kg/injection, schedule: Q01DX009 (ip), vehicle: saline 94 % of control | [16] 94 % of control | dose: 100.0 mg/kg/injection, schedule: Q01DX009 (ip), vehicle: saline 104 % of control | [6] 88 % of control | dose: 200.0 mg/kg/injection, schedule: Q01DX009 (ip), vehicle: saline 110 % of control | [7] 94 % of control | dose: 400.0 mg/kg/injection, schedule: Q04DX003 (ip), vehicle: saline 91 % of control

c1ccc(C2=NCCCO2)cc1
inactive: [17] 100 % of control | [18] 103 % of control | [19] 102 % of control | [16] 91 % of control | [20] 102 % of control | [6] 96 % of control

Nc1nc(-c2ccccc2)c(CCCOc2ccc([N+](=O)[O-])cc2)c(=O)[nH]1
inactive: dose: 50.0 mg/kg/injection, schedule: Q01DX001 (ip), vehicle: carboxymethylcellulose (CMC) 88 % of control | [11] 91 % of control | dose: 400.0 mg/kg/injection, schedule: Q01DX001 (ip), vehicle: carboxymethylcellulose (CMC) 88 % of control

Nc1[nH]nc2nccnc12
inactive: [20] 103 % of control | [14] 96 % of control | [21] 98 % of control | [15] 97 % of control | dose: 400.0 mg/kg/injection, schedule: Q01DX009 (ip), vehicle: saline with Tween-80 95 % of control | dose: 400.0 mg/kg/injection, schedule: Q04DX003 (ip), vehicle: saline with Tween-80 102 % of control

CCC(=O)Nc1cc(Cl)ccc1OC
inactive: [1] 94 % of control | [22] 98 % of control | [2] 100 % of control | [23] 93 % of control | [3] 93 % of control | [24] 106 % of control

CCCCCCCNC(=S)NNC(=O)c1ccncc1
inactive: [1] 97 % of control | [2] 100 % of control | [3] 100 % of control

CN(NC(=O)OCc1ccccc1)C(=O)OCc1ccccc1
inactive: dose: 12.5 mg/kg/injection, schedule: Q01DX009 (ip), vehicle: Klucel (hydroxypropylcellulose) (HPC) 98 % of control | dose: 12.5 mg/kg/injection, schedule: Q04DX003 (ip), vehicle: Klucel (hydroxypropylcellulose) (HPC) 93 % of control | [12] 93 % of control | dose: 25.0 mg/kg/injection, schedule: Q04DX003 (ip), vehicle: Klucel (hydroxypropylcellulose) (HPC) 103 % of control | [13] 108 % of control | dose: 50.0 mg/kg/injection, schedule: Q04DX003 (ip), vehicle: Klucel (hydroxypropylcellulose) (HPC) 112 % of control | [1] 90 % of control | [22] 89 % of control | [2] 90 % of control | [23] 106 % of control | [24] 110 % of control

CCOC(=N)C(O)c1ccccc1 (stereo not given)
inactive: dose: 100.0 mg/kg/injection, schedule: Q04DX002 (ip), vehicle: saline with Tween-80 111 % of control | dose: 200.0 mg/kg/injection, schedule: Q04DX002 (ip), vehicle: saline with Tween-80 100 % of control | dose: 400.0 mg/kg/injection, schedule: Q04DX002 (ip), vehicle: saline with Tween-80 100 % of control

CCOC(=O)CNC(=O)C(CC(C)C)NC(=O)C1CCCN1C(=O)OCc1ccccc1 (stereo not drawn) (Cbz-Pro-Leu-Gly-OEt; configuration not given here)
inactive: [1] 105 % of control | [22] 107 % of control | [2] 89 % of control | [23] 93 % of control | [3] 110 % of control | [24] 98 % of control

CCCCCCCCCCCCCCCCCCSC(=N)N
inactive: [17] 101 % of control | [18] 98 % of control | [19] 95 % of control | [20] 100 % of control

COC1=C(c2ccccc2)P(=O)(Cc2ccccc2)C2CCCC12 (stereo not given)
inactive: [22] 109 % of control | [23] 96 % of control | [24] 100 % of control

CCC1=C(c2cc(Cl)c3ccccc3c2OCC(=O)O)OC(CC)(C(=O)c2cc(Cl)c3ccccc3c2OCC(=O)O)CC1 (stereo not given)
inactive: dose: 30.0 mg/kg/injection, schedule: Q01DX009 (ip), vehicle: saline with Tween-80 96 % of control | dose: 31.0 mg/kg/injection, schedule: Q01DX Z (ip), vehicle: other 92 % of control | dose: 60.0 mg/kg/injection, schedule: Q01DX009 (ip), vehicle: saline with Tween-80 94 % of control | dose: 62.0 mg/kg/injection, schedule: Q01DX Z (ip), vehicle: other 95 % of control | [14] 103 % of control | dose: 120.0 mg/kg/injection, schedule: Q01DX009 (ip), vehicle: saline with Tween-80 92 % of control | [15] 93 % of control | dose: 240.0 mg/kg/injection, schedule: Q01DX009 (ip), vehicle: saline with Tween-80 92 % of control

CCOC(=O)C=C1CCN(C)CC1
inactive: [19] 104 % of control | [8] 97 % of control | [20] 98 % of control | [9] 103 % of control | [21] 97 % of control | [10] 101 % of control
